Reference: patent US20050282755A1, “Compositions having antimicrobial activity and uses thereof” (priority 2004, published 2005)
Values after ≈ are worked out from the molar mass of the structure shown. Starred links: 1 amine or outer side, 2 acyl side, 3 side chain; linkers in the order of their positions; H or OH if unused. Non-standard residues stand in square brackets, D forms with d. Residues, ends and D or L forms follow the SMILES beside them. *: point of attachment. Ethylenediamine = C(CN[*:2])N[*:1]; Palmitoyl = CCCCCCCCCCCCCCCC(=O)*; Lauroyl = CCCCCCCCCCCC(=O)*; Decanoyl = CCCCCCCCCC(=O)*

Tests used:
Type in all cases: cell-based
[1] = test system: Propionibacterium acnes ATCC 6919; assay: MIC, agar dilution method NCCLS M11-A6, Brucella agar, anaerobic (Table 9, superscript c); details: ATCC 6919
Procedure, shortened: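 MIC taken as the lowest peptide level giving no colonies on the plate. Plates were inoculated to 1.5×10^8 CFU/milliliter, then kept anaerobically at 37° C. for 48-96 hours; method follows NCCLS M11-A6.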

[2] = test system: Staphylococcus epidermidis ATCC 12228; assay: MIC, NCCLS M7-A6 broth microdilution (Table 9, no superscript); details: ATCC 12228
Procedure, shortened: (§1)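 MIC, read as the lowest peptide concentration without visible growth compared with peptide-free wells, after overnight incubation at 37° C. Wells held cation-adjusted Mueller Hinton broth and a final inoculum of 5×10^5 to 1×10^6 CFU/mL from log-phase culture.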

[3] = test system: Escherichia coli ATCC 25922; assay: as above; details: ATCC 25922
Procedure, shortened: as §1

Salmonella dublin (Lane) = assay: as above
Procedure, shortened: as §1

[4] = test system: Pseudomonas aeruginosa ATCC 27853; assay: as above; details: ATCC 27853
Procedure, shortened: as §1

[5] = test system: Staphylococcus aureus ATCC 29213; assay: MIC, NCCLS M7-A6 broth microdilution, cation-adjusted Mueller Hinton broth (Table 9, no superscript); details: ATCC 29213
Procedure, shortened: as §1

[6] = test system: Candida albicans ATCC 18804; assay: MIC in yeasts, NCCLS M27-A2 broth microdilution, RPMI 1640 (Table 9, letter e); details: ATCC 18804
Procedure, shortened: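 Plates incubated 24 to 48 hours at 37° C, with yeast seeded at 0.5×10^3–2.5×10^3 CFU/milliliter final in RPMI 1640 (glutamine, phenol red indicator). MIC was read as the lowest peptide concentration showing no visible growth.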

Row | Structure (SMILES) | MIC P. acnes [1] | MIC S. epidermidis [2] | MIC E. coli [3] | MIC S. dublin (Salmonella dublin (Lane)) | MIC P. aeruginosa [4] | MIC S. aureus [5] | MIC C. albicans [6]
1 | CCCCCCCCCC(=O)NCCNC(=O)[C@H](CCCNC(=N)N)NC(=O)[C@H](CCSC)NC(=O)[C@H](Cc1ccccc1)NC(=O)[C@H](CC(N)=O)NC(=O)[C@H](CCCNC(=N)N)NC(=O)[C@H](C)NC(=O)[C@@H](NC(=O)[C@H](CC(=O)O)NC(=O)[C@H](CCCNC(=N)N)NC(=O)[C@H](Cc1c[nH]c2ccccc12)NC(=O)[C@H](CCCNC(=N)N)NC(=O)[C@H](CO)NC(=O)[C@@H](N)CCCNC(=N)N)C(C)C [Peptide 175, H2N-RSRWRDVARNFMR-Ethylamidodecanyl] (H-RSRWRDVARNFMR-{Ethylenediamine-Decanoyl}; C-terminus assumed) | 32c ug/mL | 1 mg/L (≈ 0.514 µM) | 4 mg/L (≈ 2.06 µM) | 4 mg/L (≈ 2.06 µM) | 2 mg/L (≈ 1.03 µM) | 4 mg/L (≈ 2.06 µM) | 8e ug/mL
2 | CCCCCCCCCCCC(=O)N[C@H](CCCNC(=N)N)C(=O)N[C@H](CO)C(=O)N[C@H](CCCNC(=N)N)C(=O)N[C@H](C)C(=O)N[C@H](CCCNC(=N)N)C(=O)N[C@H](CC(=O)O)C(=O)N[C@@H](C(=O)N[C@H](C)C(=O)N[C@H](CCCNC(=N)N)C(=O)N[C@H](CC(N)=O)C(=O)N[C@H](Cc1ccccc1)C(=O)N[C@H](CCSC)C(=O)N[C@H](CCCNC(=N)N)C(N)=O)C(C)C [Peptide 239, Lauryl-rsrardvarnfmr-NH2] (Lauroyl-[dR][dS][dR][dA][dR][dD][dV][dA][dR][dN][dF][dM][dR]-NH2) | 8c ug/mL | 4 mg/L (≈ 2.2 µM) | 16 mg/L (≈ 8.81 µM) | 64 mg/L (≈ 35.2 µM) | 32 mg/L (≈ 17.6 µM) | 16 mg/L (≈ 8.81 µM) | 64e ug/mL
3 | CCCCCCCCCC(=O)NCCCC[C@@H](NC(=O)[C@@H](CCCNC(=N)N)NC(=O)[C@@H](CC(C)C)NC(=O)[C@@H](Cc1ccccc1)NC(=O)[C@@H](CC(N)=O)NC(=O)[C@@H](CCCNC(=N)N)NC(=O)[C@@H](C)NC(=O)[C@H](NC(=O)[C@@H](CC(=O)O)NC(=O)[C@@H](CCCNC(=N)N)NC(=O)[C@@H](Cc1c[nH]c2ccccc12)NC(=O)[C@@H](CCCNC(=N)N)NC(=O)[C@@H](CO)NC(=O)[C@H](N)CCCNC(=N)N)C(C)C)C(N)=O [Peptide 194, H2N-rsrwrdvarnflrk(Decanyl)-NH2] (H-[dR][dS][dR][dW][dR][dD][dV][dA][dR][dN][dF][dL][dR][dK](Decanoyl)-NH2) | 4c ug/mL | 1 mg/L (≈ 0.497 µM) | 2 mg/L (≈ 0.993 µM) | 4 mg/L (≈ 1.99 µM) | 2 mg/L (≈ 0.993 µM) | 2 mg/L (≈ 0.993 µM) | 16e ug/mL
4 | CCCCCCCCCCCC(=O)N[C@@H](CCCNC(=N)N)C(=O)N[C@H](CO)C(=O)N[C@@H](CCCNC(=N)N)C(=O)N[C@H](Cc1c[nH]c2ccccc12)C(=O)N[C@@H](CCCNC(=N)N)C(=O)N[C@H](CC(=O)O)C(=O)N[C@@H](C(=O)N[C@H](C)C(=O)N[C@@H](CCCNC(=N)N)C(=O)N[C@H](CC(N)=O)C(=O)N[C@H](Cc1ccccc1)C(=O)N[C@H](CCSC)C(=O)N[C@@H](CCCNC(=N)N)C(N)=O)C(C)C [Peptide 158, Lauryl-RsRwRdvaRnfmR-NH2] (Lauroyl-R[dS]R[dW]R[dD][dV][dA]R[dN][dF][dM]R-NH2) | 8c ug/mL | 2 mg/L (≈ 1.04 µM) | 16 mg/L (≈ 8.28 µM) | 16 mg/L (≈ 8.28 µM) | 4 mg/L (≈ 2.07 µM) | 8 mg/L (≈ 4.14 µM) | 32e ug/mL
5 | CCCCCCCCCCCC(=O)N[C@H](CCCNC(=N)N)C(=O)N[C@H](C)C(=O)N[C@H](CCCNC(=N)N)C(=O)N[C@H](Cc1c[nH]c2ccccc12)C(=O)N[C@H](CCCNC(=N)N)C(=O)N[C@H](CC(=O)O)C(=O)N[C@@H](C(=O)N[C@H](C)C(=O)N[C@H](CCCNC(=N)N)C(=O)N[C@H](CC(N)=O)C(=O)N[C@H](Cc1ccccc1)C(=O)N[C@H](CCSC)C(=O)N[C@H](CCCNC(=N)N)C(N)=O)C(C)C [Peptide 237, Lauryl-rarwrdvarnfmr-NH2] (Lauroyl-[dR][dA][dR][dW][dR][dD][dV][dA][dR][dN][dF][dM][dR]-NH2) | 16c ug/mL | 1 mg/L (≈ 0.522 µM) | 4 mg/L (≈ 2.09 µM) | 4 mg/L (≈ 2.09 µM) | 8 mg/L (≈ 4.18 µM) | 4 mg/L (≈ 2.09 µM) | 16e ug/mL
6 | CCCCCCCCCCCC(=O)N[C@@H](CO)C(=O)N[C@@H](CCCNC(=N)N)C(=O)N[C@@H](Cc1c[nH]c2ccccc12)C(=O)N[C@@H](CCCNC(=N)N)C(=O)N[C@@H](CC(=O)O)C(=O)N[C@H](C(=O)N[C@@H](C)C(N)=O)C(C)C [Peptide 104, Lauryl-SRWRDVA-NH2] (Lauroyl-SRWRDVA-NH2) | >64c ug/mL | >64 mg/L | >64 mg/L | >64 mg/L | >64 mg/L | 4 mg/L (≈ 3.74 µM) | >64e ug/mL
7 | CCCCCCCCCCCC(=O)N[C@H](CCCNC(=N)N)C(=O)N[C@H](CO)C(=O)N[C@H](CCCNC(=N)N)C(=O)N[C@H](Cc1c[nH]c2ccccc12)C(=O)N[C@H](CCCNC(=N)N)C(=O)N[C@H](CC(=O)O)C(=O)N[C@H](CC(C)C)C(=O)N[C@H](CC(C)C)C(=O)N[C@H](CCCNC(=N)N)C(=O)N[C@H](CC(N)=O)C(=O)N[C@H](CC(C)C)C(=O)N[C@H](CCSC)C(=O)N[C@H](CCCNC(=N)N)C(N)=O [Peptide 133, Lauryl-rsrwrdllrnlmr-NH2] (Lauroyl-[dR][dS][dR][dW][dR][dD][dL][dL][dR][dN][dL][dM][dR]-NH2) | 2c ug/mL | 2 mg/L (≈ 1.02 µM) | 16 mg/L (≈ 8.19 µM) | 8 mg/L (≈ 4.1 µM) | 32 mg/L (≈ 16.4 µM) | 4 mg/L (≈ 2.05 µM) | 2e ug/mL
8 | CCCCCCCCCCCCCCCC(=O)NCCCC[C@@H](NC(=O)[C@@H](CCCNC(=N)N)NC(=O)[C@@H](CCSC)NC(=O)[C@@H](Cc1ccccc1)NC(=O)[C@@H](CC(N)=O)NC(=O)[C@@H](CCCNC(=N)N)NC(=O)[C@@H](C)NC(=O)[C@H](NC(=O)[C@@H](CC(=O)O)NC(=O)[C@@H](CCCNC(=N)N)NC(=O)[C@@H](Cc1c[nH]c2ccccc12)NC(=O)[C@@H](CCCNC(=N)N)NC(=O)[C@@H](CO)NC(=O)[C@H](N)CCCNC(=N)N)C(C)C)C(N)=O [Peptide 201, H2N-rsrwrdvarnfmrk(Palmitoyl)-NH2] (H-[dR][dS][dR][dW][dR][dD][dV][dA][dR][dN][dF][dM][dR][dK](Palmitoyl)-NH2) | 16c ug/mL | 2 mg/L (≈ 0.945 µM) | 32 mg/L (≈ 15.1 µM) | 16 mg/L (≈ 7.56 µM) | >64 mg/L | 16 mg/L (≈ 7.56 µM) | 2e ug/mL
9 | CCCCCCCCCCCC(=O)N[C@@H](CCCNC(=N)N)C(=O)N[C@@H](CO)C(=O)N[C@@H](CCCNC(=N)N)C(=O)N[C@@H](Cc1c[nH]c2ccccc12)C(=O)N[C@@H](CCCNC(=N)N)C(=O)N[C@@H](CC(=O)O)C(=O)N[C@H](C(=O)N[C@@H](C)C(=O)N[C@@H](CCCNC(=N)N)C(=O)N[C@@H](CC(N)=O)C(=O)N[C@@H](Cc1ccccc1)C(=O)N[C@@H](CCSC)C(=O)N[C@@H](CCCNC(=N)N)C(=O)N[C@@H](Cc1c[nH]c2ccccc12)C(N)=O)C(C)C [Peptide 141, Lauryl-RSRWRDVARNFMRW-NH2] (Lauroyl-RSRWRDVARNFMRW-NH2) | 32c ug/mL | 4 mg/L (≈ 1.89 µM) | 16 mg/L (≈ 7.56 µM) | 16 mg/L (≈ 7.56 µM) | >64 mg/L | 16 mg/L (≈ 7.56 µM) | 2e ug/mL
10 | CCCCCCCCCC(=O)NCCCC[C@H](NC(=O)[C@H](CCCNC(=N)N)NC(=O)[C@H](CCSC)NC(=O)[C@H](Cc1ccccc1)NC(=O)[C@H](CC(N)=O)NC(=O)[C@H](CCCNC(=N)N)NC(=O)[C@H](C)NC(=O)[C@@H](NC(=O)[C@H](CC(=O)O)NC(=O)[C@H](CCCNC(=N)N)NC(=O)[C@H](Cc1c[nH]c2ccccc12)NC(=O)[C@H](CCCNC(=N)N)NC(=O)[C@H](CO)NC(=O)[C@@H](N)CCCNC(=N)N)C(C)C)C(N)=O [Peptide 185, H2N-RSRWRDVARNFMRK(Decanyl)-NH2] (H-RSRWRDVARNFMRK(Decanoyl)-NH2) | 32c ug/mL | 1 mg/L (≈ 0.492 µM) | 8 mg/L (≈ 3.94 µM) | 16 mg/L (≈ 7.88 µM) | 16 mg/L (≈ 7.88 µM) | 4 mg/L (≈ 1.97 µM) | 32e ug/mL
